Measurements from patent publication US20180099931A1 (AbbVie S.à.r.l., priority 2016, published 2018).
pEC50: −log10 of the molar value. Read-outs that look alike come from different tables or passages of the source.

Target: T1, F508delCFTR (Homo sapiens, UniProt P13569, DEL508-508)
T1 construct: expressed in transfected cells; host or cells: CFBE41o- human lung-derived epithelial cells (CFBE4lo-F508delCFTR-HRP), doxycycline-inducible
Test: Cell Surface Expression-Horse Radish Peroxidase (CSE-HRP) Assay;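 as to Maximum % activity (with co-corrector): co-corrector and positive control are both the same reference corrector at 2 µM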;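 as to Maximum % activity (without co-corrector): percent of the 2 µM on-plate positive control corrector response above DMSO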
Format: cell-based
Settings: for Maximum % activity (with co-corrector) / Emax: maximum at any tested concentration, normalized to on-plate positive control; for Emax: read-out: Maximum % activity (without co-corrector)
Method: Cell Surface Expression-Horse Radish Peroxidase (CSE-HRP) Assay;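 as to Maximum % activity (with co-corrector): co-corrector and positive control are both the same reference corrector at 2 µM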;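 as to Maximum % activity (without co-corrector): percent of the 2 µM on-plate positive control corrector response above DMSO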
The development was achieved by expressing the F508delCFTR mutation along with a horseradish peroxidase (HRP) in the fourth exofacial loop, and then measuring the HRP activity using luminescence readout from these cells, CFBE4lo-F508delCFTR-HRP, that were incubated overnight with the test corrector compounds, either without or with the co-corrector. […] The test compounds were then added either without or with a co-corrector at the required concentrations and further incubated for 18-24 hours at 33° C. The highest concentration tested was 20 μM with an 8-point concentration response curve using a 3-fold dilution in both the test compound without or with the co-corrector. Three replicate plates were run to determine one EC50. All plates contained negative controls (dimethyl sulfoxide, DMSO) and positive control (2 μM of 3-[(2R,4R)-4-({[1-(2,2-difluoro-1,3-benzodioxol-5-yl)cyclopropyl]carbonyl}amino)-7-methoxy-3,4-dihydro-2H-chromen-2-yl]benzoic acid) as well as on-plate concentration response of the positive control. […] The raw counts from the experiment were analyzed using Accelrys® Assay Explorer v3.3.
1−[3*SDPositive Control+3*SDNegative Control/Absolute(MeanPositive Control−MeanNegative Control)]
wherein “SD” is standard deviation.
The % activity measured at each of the 8 test concentrations of the test compound added either without or with a co-corrector (2 μM of 3-[(2R,4R)-4-({[1-(2,2-difluoro-1,3-benzodioxol-5-yl)cyclopropyl]carbonyl}amino)-7-methoxy-3,4-dihydro-2H-chromen-2-yl]benzoic acid) was normalized to the on-plate positive control using the following formulae:
% activity(Test compound without co-corrector)=[(test compound without co-corrector response−DMSO response)/(positive control response−DMSO response)]*100
% activity(Test compound with co-corrector)=[(test compound with co-corrector response−DMSO response)/(positive control response−DMSO response)]*100
The maximum % activity achieved for the test compound either without or with a co-corrector at any tested concentration is presented in Table 4 along with the respective EC50's calculated using the following general sigmoidal curve with variable Hill slope equation (described as Model 42 in the Accelrys® Assay Explorer v3.3 software):
General sigmoidal curve with concentration, response, top, bottom, EC50 and Hill slope. This model describes a sigmoidal curve with an adjustable baseline, a. The equation can be used to fit curves where response is either increasing or decreasing with respect to the independent variable, “x”.
“x” is a concentration of drug under test. “y” is the response. “a” is the maximum response, and “d” is the minimum response “c” is the inflection point (EC50) for the curve. That is, “y” is halfway between the lower and upper asymptotes when x=c. “b” is the slope-factor or Hill coefficient. The sign of b is positive when the response increases with increasing dose and is negative when the response decreases with increasing dose (inhibition).

[1] = CSE-HRP, test compound without co-corrector, read-out: EC50 (without co-corrector)
[2] = CSE-HRP, with co-corrector (2 μM of 3-[(2R,4R)-4-({[1-(2,2-difluoro-1,3-benzodioxol-5-yl)cyclopropyl]carbonyl}amino)-7-methoxy-3,4-dihydro-2H-chromen-2-yl]benzoic acid), read-out: EC50 (with co-corrector)
[3] = CSE-HRP, with co-corrector (2 μM)
[4] = test compound without co-corrector, read-out: EC50 (without co-corrector)
[5] = with co-corrector (2 μM of 3-[(2R,4R)-4-({[1-(2,2-difluoro-1,3-benzodioxol-5-yl)cyclopropyl]carbonyl}amino)-7-methoxy-3,4-dihydro-2H-chromen-2-yl]benzoic acid), read-out: EC50 (with co-corrector)
[6] = test compound without co-corrector
[7] = with co-corrector (2 μM of 3-[(2R,4R)-4-({[1-(2,2-difluoro-1,3-benzodioxol-5-yl)cyclopropyl]carbonyl}amino)-7-methoxy-3,4-dihydro-2H-chromen-2-yl]benzoic acid)

T1 sequence (P13569 with tags, fused parts or gaps DEL508-508): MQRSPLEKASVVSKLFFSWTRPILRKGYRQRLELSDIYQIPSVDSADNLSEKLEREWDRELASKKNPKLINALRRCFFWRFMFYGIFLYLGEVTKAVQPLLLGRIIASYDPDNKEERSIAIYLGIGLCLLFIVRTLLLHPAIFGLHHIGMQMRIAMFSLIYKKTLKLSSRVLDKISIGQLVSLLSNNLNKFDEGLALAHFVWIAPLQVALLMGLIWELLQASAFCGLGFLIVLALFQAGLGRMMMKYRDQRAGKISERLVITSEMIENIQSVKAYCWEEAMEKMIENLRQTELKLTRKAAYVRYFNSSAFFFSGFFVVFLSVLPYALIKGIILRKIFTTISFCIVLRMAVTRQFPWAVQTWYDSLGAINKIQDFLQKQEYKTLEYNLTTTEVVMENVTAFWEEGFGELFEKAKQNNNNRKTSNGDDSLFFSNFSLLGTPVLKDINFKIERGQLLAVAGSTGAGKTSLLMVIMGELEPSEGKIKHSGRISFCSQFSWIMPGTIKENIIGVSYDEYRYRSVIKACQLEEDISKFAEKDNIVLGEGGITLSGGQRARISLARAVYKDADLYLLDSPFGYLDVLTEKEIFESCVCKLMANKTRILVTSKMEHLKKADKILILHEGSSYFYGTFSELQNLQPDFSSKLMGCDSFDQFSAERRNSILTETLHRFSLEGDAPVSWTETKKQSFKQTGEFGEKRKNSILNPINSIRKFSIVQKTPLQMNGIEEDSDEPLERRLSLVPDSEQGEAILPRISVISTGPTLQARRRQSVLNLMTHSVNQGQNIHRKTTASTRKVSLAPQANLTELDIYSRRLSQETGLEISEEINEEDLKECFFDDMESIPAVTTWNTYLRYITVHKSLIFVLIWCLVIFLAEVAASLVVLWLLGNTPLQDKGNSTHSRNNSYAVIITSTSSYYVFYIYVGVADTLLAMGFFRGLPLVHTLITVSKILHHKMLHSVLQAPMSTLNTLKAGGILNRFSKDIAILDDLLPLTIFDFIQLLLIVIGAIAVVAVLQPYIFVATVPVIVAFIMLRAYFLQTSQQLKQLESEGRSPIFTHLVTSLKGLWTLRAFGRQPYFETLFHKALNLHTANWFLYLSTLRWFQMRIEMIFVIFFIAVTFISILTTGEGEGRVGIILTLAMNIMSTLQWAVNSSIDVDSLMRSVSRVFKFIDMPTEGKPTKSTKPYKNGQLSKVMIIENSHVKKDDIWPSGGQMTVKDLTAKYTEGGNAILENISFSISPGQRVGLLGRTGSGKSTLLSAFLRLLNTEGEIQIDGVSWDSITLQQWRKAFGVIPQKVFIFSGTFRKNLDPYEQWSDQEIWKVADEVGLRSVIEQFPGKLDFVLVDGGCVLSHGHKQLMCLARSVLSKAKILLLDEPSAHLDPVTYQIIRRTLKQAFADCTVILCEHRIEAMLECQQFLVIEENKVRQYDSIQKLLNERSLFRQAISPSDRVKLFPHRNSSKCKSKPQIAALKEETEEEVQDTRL

| SMILES | pEC50 [1] | pEC50 [2] | Maximum % activity (with co-corrector) [3] | Emax (CSE-HRP, without co-corrector) [%] | pEC50 [4] | pEC50 [5] | Maximum % activity (with co-corrector) (with co-corrector (2 μM)) | Emax (without co-corrector) [%] | Emax [6] [%] | Maximum % activity (with co-corrector) [7] |
| --- | --- | --- | --- | --- | --- | --- | --- | --- | --- | --- |
| COc1ccc(C(F)(F)F)cc1CN[C@H]1[C@H](C(C)(C)C)[C@@H](C(=O)O)N(C(=O)C2CCCC(F)(F)C2)[C@H]1c1cccnc1OC (relative stereo) [Example I-256] | 5.00 to 6.00 | > 6.00 | +++ (≥350) | > 200 | – | – | – | – | – | – |
| COc1ccc(C(C)(C)C)cc1CN[C@H]1[C@H](C23CC(C2)C3)[C@@H](C(=O)O)N(C(=O)OC(C)C)[C@H]1c1cccnc1N(C)C [Example 71, (2S,3S,4S,5S)-3-(bicyclo[1.1.1]pentan-1-yl)-4-{[(5-tert-butyl-2-methoxyphenyl)methyl]amino}-5-[2-(dimethylamino)pyridin-3-yl]-1-{[(propan-2-yl)oxy]carbonyl}pyrrolidine-2-carboxylic acid] | – | – | – | – | 5.00 to 6.00 | 5.00 to 6.00 | +++ (≥350) | > 200 | – | – |
| COc1cc(C(F)(F)F)ccc1CN[C@H]1[C@H](C(C)(C)C)[C@@H](C(=O)O)N(C(=O)[C@@H]2CCCC(F)(F)C2)[C@H]1c1ccccc1 [Example 75, (2S,3S,4S,5S)-3-tert-butyl-1-[(1R)-3,3-difluorocyclohexane-1-carbonyl]-4-({[2-methoxy-4-(trifluoromethyl)phenyl]methyl}amino)-5-phenylpyrrolidine-2-carboxylic acid] | – | – | – | – | 5.00 to 6.00 | > 6.00 | +++ (≥350) | > 200 | – | – |
| COc1ncc(C(F)(F)F)cc1CN[C@H]1[C@H](C(C)(C)C)[C@@H](C(=O)O)N(C(=O)[C@@H]2CCC[C@@H](OC)C2)[C@H]1c1ccccc1 [Example I-79] | – | – | – | – | 5.00 to 6.00 | 5.00 to 6.00 | +++ (≥350) | > 200 | – | – |

Second part, the compound after the results:

| pEC50 [1] | pEC50 [2] | Maximum % activity (with co-corrector) [3] | Emax (CSE-HRP, without co-corrector) [%] | pEC50 [4] | pEC50 [5] | Maximum % activity (with co-corrector) (with co-corrector (2 μM)) | Emax (without co-corrector) [%] | Emax [6] [%] | Maximum % activity (with co-corrector) [7] | SMILES |
| --- | --- | --- | --- | --- | --- | --- | --- | --- | --- | --- |
| 5.00 to 6.00 | 5.00 to 6.00 | +++ (≥350) | < 100 | – | – | – | – | – | – | COc1cc(C(F)(F)F)ccc1CN[C@H]1[C@H](C(C)(C)C)[C@@H](C(=O)O)N(C(=O)c2ccccc2)[C@H]1c1ccccc1 [II-152] |
| – | – | – | – | 5.00 to 6.00 | > 6.00 | +++ (≥350) | – | 100 to 200 | – | COc1ncc(C2CCC2)cc1CN[C@H]1[C@H](C(C)(C)C)[C@@H](C(=O)O)N(C(=O)C2CC(C)CC(C)C2)[C@H]1c1ccccc1 (stereo partly drawn) [III-207] |
| – | – | – | – | 5.00 to 6.00 | > 6.00 | – | – | > 200 | +++ (≥350) | COc1ccc(C(C)(C)C)cc1CN[C@H]1[C@H](C(C)(C)C)[C@@H](C(=O)O)N(C(=O)[C@@H]2[C@@H](C(F)(F)F)[C@@H]3CC[C@H]2O3)[C@H]1c1ccccc1 (relative stereo) [II-505] |
| – | – | – | – | 5.00 to 6.00 | 5.00 to 6.00 | ++ (≥150 and <350) | – | < 100 | – | CC(C)(C)[C@H]1[C@H](Nc2nc(Cl)c(F)cc2C#N)[C@H](c2ccccc2)N(C(=O)C2CCCCC2)[C@@H]1C(=O)O [III-145] |
| 5.00 to 6.00 | 5.00 to 6.00 | +++ (≥350) | > 200 | – | – | – | – | – | – | COc1ccc(C(C)(C)C)cc1CN[C@H]1[C@H](C(C)(C)C)[C@@H](C(=O)O)N(C(=O)Cc2cccc(F)c2)[C@H]1c1ccccc1 [II-199] |
| 5.00 to 6.00 | 5.00 to 6.00 | +++ (≥350) | 100 to 200 | – | – | – | – | – | – | COc1ccc(C(C)(C)C)cc1CN[C@H]1[C@H](C(C)(C)C)[C@@H](C(=O)O)N(S(=O)(=O)c2ccn(C)n2)[C@H]1c1ccccc1 [II-154] |
| – | – | – | – | 5.00 to 6.00 | 5.00 to 6.00 | – | – | 100 to 200 | +++ (≥350) | Cc1cc(C(F)(F)F)cc(N[C@H]2[C@H](C(C)(C)C)[C@@H](C(=O)O)N(C(=O)C3CCCCC3)[C@H]2c2ccccc2C)n1 [II-575] |
| 5.00 to 6.00 | > 6.00 | +++ (≥350) | > 200 | – | – | – | – | – | – | CCn1c(C)c(CC(=O)N2[C@H](C(=O)O)[C@@H](C(C)(C)C)[C@H](NCc3cc(C(C)(C)C)ccc3OC)[C@@H]2c2ccccc2)c2ccccc21 [II-172] |
